The subject of data set [1] is histamine-induced lethality. As to the kind of experiment: Protecting activity against histamine-induced lethality (method similar to Labell & Tislow). The following applies: for ED50: Cavia porcellus, guinea pigs, oral, 1 hour before histamine 1.1 mg/kg into cephalic vein, survival after two hours, probit method; for protecting activity against histamine-induced lethality in comparison with that of the compounds of the present invention: relative to compounds of the present invention. It counts as in vivo, Hartley strain male guinea pigs. How it is done:
1. Protecting activity against histamine-induced lethality
(3) Homochlorcyclizine hydrochloride (reference compound)
The test was carried out by a method similar to Labell & Tislow method (cf. J. Pharmacol Exp. Ther., 113, 72, 1955). […] After one hour, histamine (1.1 mg/kg, in a physiological saline solution) was injected to the animals in cephalic vein. After two hours, the number of live guinea pigs was counted, and therefrom ED50 of the compounds was calculated according to probit method.

Data set [2] in a line: in vivo. The note with it: mouse, ddY male mice, oral, observed one week, Weil's method, read-out: Acute toxicity LD50. How it is done:
The same compounds as used in the above protecting activity against histamine were used.
The LD50 was calculated based on the number of dead mice within one week according to Weil's method.

The test system of data set [3] is hexobarbital-induced sleep. The experiment in a line: Potentiating effect on hexobarbital-induced sleep in mice. The format is in vivo. An excerpt: Besides, the conventional antihistaminics have side-effect such as hypnotic activity.

SMILES strings stand for the structures. Where a name gives a salt, the structure may show the parent alone.

Take `C#CCOCCn1c(N2CCN(C)CC2)nc2ccccc21` [Example 2, 1-[2-(propargyloxy)ethyl]-2-(4-methyl-1-piperazinyl)benzimidazole.3/2fumarate]: the ED50 in data set [1] was 0.0047 mg/kg. Moreover, the LD50 at 168 h in data set [2] worked out at 818 mg/kg. Moreover, the “potentiating effect on hexobarbital-induced sleep” value (“potentiating effect” below) in data set [3] (50 mg/kg (p.o.)) is “did not show such potentiating effect”.

On to `CCOCCn1c(N2CCN(C)CC2)nc2ccccc21` [Example 5, 1-[2-(ethoxy)ethyl]-2-(4-methyl-1-piperazinyl)benzimidazole.3/2 fumarate], for which it took a dose of 0.007 mg/kg to reach the 50% effect level in data set [1] (ED50). In data set [2], the LD50 at 168 h came out at 1490 mg/kg.

Compound `C=CCOCCn1c(N2CCCN(C)CC2)nc2ccccc21` [Example 6, 1-[2-(allyloxy)ethyl]-2-(4-methyl-1-homopiperazinyl)benzimidazole difumarate] came in with an ED50 in data set [1] of 0.0088 mg/kg. For the same compound, the LD50 at 168 h in data set [2] was 904 mg/kg.

In data set [1], `CN1CCCN(c2nc3ccccc3n2CCOc2ccccc2)CC1` [Example 10, 1-[2-(phenoxy)ethyl]-2-(4-methyl-1-homopiperazinyl)benzimidazole difumarate] came in with an ED50 of 0.014 mg/kg. Besides, the LD50 at 168 h in data set [2] came to 1010 mg/kg.

In turn, `CCOCCn1c(N2CCCN(C)CC2)nc2ccccc21` [Example 3, 1-[2-(ethoxy)ethyl]-2-(4-methyl-1-homopiperazinyl)benzimidazole.difumarate] had an ED50 in data set [1] of 0.0047 mg/kg. The LD50 at 168 h in data set [2] turned out to be 628 mg/kg. The “potentiating effect” value in data set [3] (50 mg/kg (p.o.)) was “did not show such potentiating effect”.

With `CN1CCCN(C(c2ccccc2)c2ccc(Cl)cc2)CC1` (stereo not shown) [Homochlorcyclizine hydrochloride, reference compound], the ED50 in data set [1] was found to be 0.26 mg/kg. Also, the LD50 at 168 h in data set [2] turned out to be 382 mg/kg. Further, the “potentiating effect” value in data set [3] (25 mg/kg (p.o.)) is on record as “remarkable potentiating effect”.

In data set [1], `C=CCOCCn1c(N2CCN(C)CC2)nc2ccccc21` [Example 4, 1-[2-(allyloxy)ethyl]-2-(4-methyl-1-piperazinyl)benzimidazole.3/2 fumarate] gave an ED50 of 0.0058 mg/kg. In addition, the LD50 at 168 h in data set [2] came out at 1640 mg/kg.

Compound `CCCOCCn1c(N2CCN(C)CC2)nc2ccccc21` [Example 11, 1-[2-(n-propoxy)ethyl]-2-(4-methyl-1-piperazinyl)benzimidazole.3/2 fumarate] had an ED50 in data set [1] of 0.015 mg/kg. In data set [2], the LD50 at 168 h came out at 2300 mg/kg.

For the compound `CN1CCN(c2nc3ccccc3n2C)CC1` [1-methyl-2-(4-methyl-1-piperazinyl)benzimidazole, reference compound], the “protecting activity against histamine-induced lethality in comparison with that of the compounds of the present invention” value (“protecting activity” for short) in data set [1] is reported as “about one severals to one tenth or less”.

Turning to `CN1CCN(c2nc3ccccc3n2CCOc2ccccc2)CC1` [Example 12, 1-[2-(phenoxy)ethyl]-2-(4-methyl-1-piperazinyl)benzimidazole.3/2 fumarate], the ED50 in data set [1] came to 0.017 mg/kg. Besides, the LD50 at 168 h in data set [2] came to 1110 mg/kg.

With `C#CCOCCn1c(N2CCCN(C)CC2)nc2ccccc21` [Example 1, 1-[2-(propargyloxy)ethyl]-2-(4-methyl-1-homopiperazinyl)benzimidazole difumarate], the ED50 in data set [1] worked out at 0.0046 mg/kg. Besides, the LD50 at 168 h in data set [2] turned out to be 990 mg/kg.

For `CN1CCN(c2nc3ccccc3n2Cc2ccccc2)CC1` [1-benzyl-2-(4-methyl-1-piperazinyl)benzimidazole, reference compound], in data set [1], the “protecting activity” value is “about one severals to one tenth or less”.

In the case of `CCOCCn1c(N2CCNCC2)nc2ccccc21` [Example 8, 1-[2-(ethoxy)ethyl]-2-(1-piperazinyl)benzimidazole.3/2 fumarate], the ED50 in data set [1] came out at 0.011 mg/kg. In data set [2], the LD50 at 168 h turned out to be 2220 mg/kg. Besides, in data set [3] (50 mg/kg (p.o.)), the “potentiating effect” value is reported as “did not show such potentiating effect”.

As to `CCOCCn1c(N2CCN(CC)CC2)nc2ccccc21` [Example 9, 1-[2-(ethoxy)ethyl]-2-(4-ethyl-1-piperazinyl)benzimidazole.3/2 fumarate], the 50% effect level in data set [1] (ED50) was put at a dose of 0.013 mg/kg. The LD50 at 168 h in data set [2] amounted to 2640 mg/kg. Besides, in data set [3] (50 mg/kg (p.o.)), the “potentiating effect” value was “did not show such potentiating effect”.

Compound `CCCOCCn1c(N2CCCN(C)CC2)nc2ccccc21` [Example 7, 1-[2-(n-propoxy)ethyl]-2-(4-methyl-1-homopiperazinyl)benzimidazole difumarate] displayed an ED50 in data set [1] of 0.0095 mg/kg. Also, the LD50 at 168 h in data set [2] turned out to be 884 mg/kg.

For `CN1CCN(c2nc3ccccc3[nH]2)CC1` [2-(4-methyl-1-piperazinyl)benzimidazole, reference compound], in data set [1], the “protecting activity” value was “about one severals to one tenth or less”.

(Values after patent publication US4430343A, “Benzimidazole derivatives, process for the preparation thereof and pharmaceutical composition containing the same” (Kanebo, Ltd., priority 1981, dated 1984).)
